Data: patent US20260102347A1, “Sulfur-Containing Ionizable Lipids for the Delivery of Therapeutic Agents” (NanoVation Therapeutics Inc., priority 2022, published 2026)

What was measured:
spleen = assay: In vivo analysis in CD-1 mice: luciferase mRNA-LNP, luminescence in the spleen; details: LNP 50/10/38.5/1.5 mol % ionizable lipid/DSPC/chol/PEG-DMG, N/P 6, mRNA encoding luciferase 1 mg/kg intravenous, 4 hours post-injection (FIG. 2B)
Description: (§1) Lipids 1 or 2 described herein, DSPC, cholesterol, and PEG-DMG, were dissolved in ethanol at the appropriate ratios to a final concentration of 10 mM total lipid. Nucleic acid (siRNA or mRNA) was dissolved in an appropriate buffer such as 25 mM sodium acetate pH 4 or sodium citrate pH 4 to a concentration necessary to achieve the appropriate amine-to-phosphate ratios. The aqueous and organic solutions were mixed using a rapid-mixing device as described in Kulkarni et al., 2018, ACS Nano, 12:4787 and Kulkarni et al., 2017, Nanoscale, 36:133347 (each incorporated herein by reference) at a flow rate ratio of 3:1 (v/v; respectively) and a total flow rate of 20 mL/min. The resultant mixture was dialyzed directly against 1000-fold volume of PBS pH 7.4. All formulations were concentrated using an Amicon™ centrifugal filter unit and analysed using the methods described below. LNP-mRNA encoding firefly luciferase were injected intravenously (tail-vein) into 6-8 week old CD-1 mice. Four hours following injection, the animals were euthanized and the liver and spleen and isolated. Tissue was homogenized in Glo Lysis buffer and a luciferase assay performed using the Steady Glo Luciferase assay kit (as per manufacturers recommendations). LNP formulations containing 50/10/38.5/1.5 mol % of ionizable lipids/DSPC/chol/PEG-DMG with a nitrogen-to-phosphorous ratio (N/P) of 6 and mRNA encoding luciferase were tested for in vivo transfection efficiency in the liver and spleen after injection to CD-1 mice. The mRNA dose was 1 mg/kg. Luminescence intensity in the liver and spleen was measured at 4 hours post-injection. The ionizable lipids were 1 and 5-32 (Table 1).

liver = assay: In vivo analysis in CD-1 mice: luciferase mRNA-LNP, luminescence in the liver; details: LNP 50/10/38.5/1.5 mol % ionizable lipid/DSPC/chol/PEG-DMG, N/P 6, mRNA encoding luciferase 1 mg/kg intravenous, 4 hours post-injection (FIG. 2A)
Description: as §1

[1] = delivery of siRNA; relative to KC2; cited from earlier work

Row | Compound | luminescence intensity per mg spleen compared with the MC3 benchmark (spleen) | luminescence intensity per mg liver compared with the MC3 benchmark (liver) | siRNA required, times less than KC2 [1]
1 | CCCCCCCCCC(=O)OC(CCCCC(CCCCC(CSC1CCCCC1)OC(=O)CCCCCCCCC)OC(=O)CCCN(C)C)CSC1CCCCC1 (centres unmarked) [lipid 6, 1,13-bis(Cyclohexylthio)-7-((4-(dimethylamino)butanoyl)oxy)tridecane-2,12-diyl bis-(decanoate)] | higher | higher | –
2 | CCCCCCCCC(=O)OC(CCCCCC(CCCCCC(CSC1CCCCC1)OC(=O)CCCCCCCC)OC(=O)CCCN(C)C)CSC1CCCCC1 (centres unmarked) [lipid 11, 1,15-bis(cyclohexylthio)-8-((4-(dimethylamino)butanoyl)oxy)pentadecane-2,14-diyl dinonanoate] | – | higher | –
3 | CCCCCCCCCC(=O)OC(CCCCCC(CCCCCC(CSCCCCCC)OC(=O)CCCCCCCCC)OC(=O)CCCN(C)C)CSCCCCCC (centres unmarked) [lipid 7, 8-((4-(Dimethylamino)butanoyl)oxy)-1,15-bis(hexylthio)pentadecane-2,14-diyl bis(decanoate)] | higher | higher | –
4 | CCCCCCCCCC(=O)OC(CCCCCC(CCCCCC(CSC1CCCCC1)OC(=O)CCCCCCCCC)OC(=O)CCCN(C)C)CSC1CCCCC1 (centres unmarked) [lipid 10, 1,15-bis(cyclohexylthio)-8-((4-(dimethylamino)butanoyl)oxy)pentadecane-2,14-diyl bis(decanoate)] | – | higher | –
5 | CCCCCCCCC(=O)OC(CCCCCC(CCCCCC(CSCCCCC)OC(=O)CCCCCCCC)N(C)CCCCO)CSCCCCC (centres unmarked) [lipid 25, 8-((4-hydroxybutyl)(methyl)amino)-1,15-bis(pentylthio)pentadecane-2,14-diyl dinonano-ate] | higher | higher | –
6 | CCCCCCCCCC(=O)OC(CCCCC(CCCCC(CSCCCCCCC)OC(=O)CCCCCCCCC)N(C)CCCCO)CSCCCCCCC (centres unmarked) [lipid 23, 1,13-bis(Heptylthio)-7-((4-hydroxybutyl)(methyl)amino)tridecane-2,12-diyl bis(decano-ate)] | higher | higher | –
7 | CCCCCCCCC(=O)OC(CCCCC(CCCCC(CSCCCCCCC)OC(=O)CCCCCCCC)N(C)CCCCO)CSCCCCCCC (centres unmarked) [lipid 24, 1,13-bis(Heptylthio)-7-((4-hydroxybutyl)(methyl)amino)tridecane-2,12-diyl dinonano-ate] | higher | higher | –
8 | CCCCCCCCCC(=O)OC(CCCCC(CCCCC(CSCCCCC)OC(=O)CCCCCCCCC)N(C)CCCCO)CSCCCCC (centres unmarked) [lipid 22, 7-((4-Hydroxybutyl)(methyl)amino)-1,13-bis(pentylthio)tridecane-2,12-diyl bis(decano-ate)] | higher | higher | –
9 | CCCCCCCCCC(=O)OC(CCCCCC(CCCCCC(CSCCCCCC)OC(=O)CN(C)C(=O)CCCCC)OC(=O)CCCN(C)C)CSCCCCCC (centres unmarked) [lipid 9, 8-((4-(dimethylamino)butanoyl)oxy)-14-((N-hexanoyl-N-methylglycyl)oxy)-1,15-bis-(hexylthio)pentadecan-2-yl decanoate] | higher | higher | –
10 | CCCCCCCCCC(=O)OC(CCCCCC(CCCCCC(CSCCCCC)OC(=O)CCCCCCCCC)N(C)CCCCO)CSCCCCC (centres unmarked) [lipid 26, 8-((4-hydroxybutyl)(methyl)amino)-1,15-bis(pentylthio)pentadecane-2,14-diyl bis-(decanoate)] | higher | higher | –
11 | CCCCCCSCC(CCCCCC(CCCCCC(CSCCCCCC)OC(=O)CCC1CCCCC1)OC(=O)CCCN(C)C)OC(=O)CCC1CCCCC1 (centres unmarked) [lipid 8, 8-((4-(Dimethylamino)butanoyl)oxy)-1,15-bis(hexylthio)pentadecane-2,14-diyl bis(3-cyclohexylpropanoate)] | higher | higher | –
12 | CCCCCCCCCC(=O)OC(CCCCCC(CCCCCC(CSCCCCCC)OC(=O)CCCCCCCCC)N(C)CCCCO)CSCCCCCC (centres unmarked) [lipid 27, 1,15-bis(Hexylthio)-8-((4-hydroxybutyl)(methyl)amino)pentadecane-2,14-diyl bis-(decanoate)] | higher | higher | –
13 | CCCCCCCCCC(=O)OC(CCCCCC(CCCCCC(CSCCCCCC)OC(=O)CN(C)C(=O)CCCCC)N(C)CCCCO)CSCCCCCC (centres unmarked) [lipid 30, 14-((N-hexanoyl-N-methylglycyl)oxy)-1,15-bis(hexylthio)-8-((4-hydroxybutyl)(methyl)-amino)pentadecan-2-yl decanoate] | higher | higher | –
14 | CCCCCCCCC(=O)OC(CCCCCC(CCCCCC(CSCCCCCCC)OC(=O)CCCCCCCC)N(C)CCCCO)CSCCCCCCC (centres unmarked) [lipid 31, 1,15-bis(Heptylthio)-8-((4-hydroxybutyl)(methyl)amino)pentadecane-2,14-diyl dinonanoate] | higher | higher | –
15 | CCCCCCCCC(=O)OC(CCCCCC(CCCCCC(CSC1CCCCC1)OC(=O)CCCCCCCC)N(C)CCCCO)CSC1CCCCC1 (centres unmarked) [lipid 32, 1,15-bis(Cyclohexylthio)-8-((4-hydroxybutyl)(methyl)amino)pentadecane-2,14-diyl dinonanoate] | higher | higher | –
16 | CCCCC/C=C\C/C=C\CCCCCCCCC(CCCCCCCC/C=C\C/C=C\CCCCC)OC(=O)CCCN(C)C [MC3, DLin-MC3-DMA] | – | – | about 3 times
